Reference: patent US20240308985A1 (Psy Therapeutics, Inc., priority 2021, published 2024)
Where two headings read alike, the source gives them in different places.

Columns and labels:
[1] = Pharmacokinetic study of compounds in mice (brain exposure); assay type: in vivo, male C57BL/6 mice; details: oral
Procedure: Healthy male C57BL/6 mice (8-12 weeks old) weighing between 17 to 35 g were procured from Global, India. Temperature and humidity were maintained at 22±f3° C. and 30-70%, respectively and illumination was controlled to give a sequence of 12 hr light and 12 hr dark cycle. Temperature and humidity were recorded by auto-controlled data logger system. All the animals were provided laboratory rodent diet. Reverse osmosis water treated with ultraviolet light was provided ad libitum.
Protocol A: Twenty-four male mice were divided into two groups as; Group 1: 30 mg/kg/IP; Plasma and brain; Number of animals=12: Animal #1-12. Group 2: 30 mg/kg/PO; Plasma and brain; Number of animals=12; Animal #13-24. Animals in Group 1 were administered intraperitoneally with solution formulation of PSY-05-00074-001 in 5% NMP, 5% Solutol HS-15 and 90% normal saline at 30 mg/kg dose. Animals in Group 2 were administered orally with solution formulation of PSY-05-00074-001 in 5% NMP, 5% Solutol HS-15 and 90% normal saline at 30 mg/kg dose. Blood samples (approximately 60 μL) were collected under light isoflurane anesthesia from retro orbital plexus at 0.25, 0.5, 1, 2, 4 and 8 hr (IP and PO). Plasma samples were separated by centrifugation of whole blood and stored below −70° C. until bioanalysis. Immediately after collection of blood from intraperitoneal and oral group animals, animals were euthanized with excess CO2 and brain samples were collected from set of two mice at each time point. Brain samples were divided into two parts. Half brain samples were homogenized using ice-cold phosphate buffer saline (pH—7.4) and homogenates were stored below −70±10° C. until analysis. Total homogenate volume was three times the brain weight. Other part of brain was stored below −70±10° C. for further analysis. All samples were processed for analysis by protein precipitation using acetonitrile and analyzed with fit-for-purpose LC/MS/MS method (LLOQ—2.02 ng/mL for plasma and 6.06 ng/g for brain). Pharmacokinetic parameters were calculated using the non-compartmental analysis tool of Phoenix WinNonlin®.
Protocol B: Thirty six mice were included into the study and divided in to three groups as Group 1 (n=12), Group 2 (n=12) and Group 3 (n=12) with n=2 mice per time-point design. Animals in Group 1 were administered intravenously with solution formulation of PSY-05-00414-001 at 5 mg/kg dose. Animals in Group 2 were administered orally with solution formulation of PSY-05-00414-001 at a dose of 5 mg/kg. Animals in Group 3 were administered intraperitoneally with solution formulation of PSY-05-00414-001 at 5 mg/kg dose. The formulation vehicle for all the three groups was 5% NMP, 5% Solutol HS-15 and 90% normal saline. Blood samples (approximately 60 μL) were collected under light isoflurane anesthesia from two mice at 0.25, 0.5, 1, 2, 4 and 8 h. Plasma was harvested by centrifugation of blood and stored at −70±10° C. until analysis. After blood collection, brain was perfused and isolated at 0.25, 0.5, 1, 2, 4 and 8 h. Brain samples were dipped thrice in ice-cold phosphate buffer saline, blotted dry and cut in to two equal portion. Half-brain samples from each time-point were weighed and homogenized using ice-cold phosphate buffer saline with twice volume of brain weight making the total homogenate three volumes and stored below −70±10° C. until analysis. Remaining half-portions of brain samples was snap freeze and kept in −70±10° C. until further confirmation from client. Plasma and brain samples were quantified by fit-for-purpose LC-MS/MS method (LLOQ: 1.01 ng/mL for plasma and 2.02 ng/mL for brain).
Protocol C: Fifty four male mice were included in study and divided in to three groups as Group 1 (n=18), Group 2 (n=18) and Group 3 (n=18) with 3 mice/time point design. Animals from Group 1, Group 2 and Group 3 were administered by intravenous, oral and intraperitoneal route with solution formulation of PSY-05-00451-001 at 5 mg/kg dose, respectively. […]

[2] = target: Monoacylglycerol Lipase (MAGL) (Homo sapiens (Human), UniProt Q99685); assay: MAGL inhibition potency (IC50) assay with 4NPA substrate; assay type: biochemical
human recombinant FAAH = human recombinant FAAH (Homo sapiens (Human), UniProt O00519); assay: FAAH inhibition potency counter screen (IC50); assay type: biochemical
Procedure: Comparative compound potency at FAAH can be obtained with the following assay.
MAGL inhibitor compounds were also counter-screened for FAAH inhibition potency using the following assay. Assessment of FAAH inhibition was performed using Fatty Acid Amide Hydrolase Inhibitor Screening Assay Kit (Cayman Item No. 10005196) following manufacture's instruction with some modifications. The kit utilizes human recombinant FAAH and the fluorescent substrate, AMC Arachidonoyl amide (AAMCA). 5 μL of assay buffer (125 mM Tris, pH 9.0, 1 mM EDTA, i.e. ethylenediaminetetraacetic acid) was added to a 384-well black plate (Corning, 3573). Test compounds and control inhibitor JZL-195 (Cayman Chemical, 13668) were tested in 10-concentration IC50 mode with 3-fold serial dilution at a starting concentration of 100 μM and 10 μM, respectively. 300 nL or 30 nL of test compounds were delivered into a 384-well black plate (Corning, 3573) using a Labcyte Echo, followed by addition of 15 μL of FAAH enzyme (Cayman, 700302) in assay buffer. After a 5-minute pre-incubation at room temperature, 10 μL of AAMCA was added in assay buffer to start the reaction. Final concentration of FAAH enzyme is not specified and AAMCA substrate was used at the 20 uM. After these dilutions, the final concentration of the test compounds ranged from 100 μM to 5.08 nM or 10 μM down to 0.508 nM. The reaction was allowed to progress for 60 minutes, while the plate was read on an Envision plate reader at an Ex/Em of 350/460 nm with readings every minute. The data was analyzed in Microsoft Excel, using the slope between 30 and 59 minutes. The average of the no-enzyme wells (background) was subtracted from the data. The background-subtracted slope data was converted to % activity using the average of wells with enzyme and DMSO vehicle. IC50 values were calculated using GraphPad software (Sigmoidal dose response, variable slope equation).
Compounds listed in Table D2 were tested in the FAAH Counterscreen of Example 23

MAGL enzyme = MAGL enzyme (Homo sapiens (Human), UniProt Q99685); assay: MAGL reversible inhibition assay (washout); assay type: biochemical; set-up: B: % MAGL activity returning after washout: concentration or dose not given beside the values; details: for A: degree to which MAGL enzymatic activity returned following washout of test compounds: pre-washout compound concentration 1 μM; for B: % MAGL activity returning after washout: relative to control (no inhibitor before washout), immediately following a 30 minute washout
Procedure: The reversible mechanism of MAGL inhibition of a test compound of Formula (I) can be determined. Flag-tagged MAGL enzyme will be immobilized on anti-Flag beads. Immobilized enzyme will be incubated +/− inhibitor at a dose that produces complete inhibition. Colorimetric substrate (4-NPA) will be added and the reaction monitored on a plate reader for 30 minutes to verify complete inhibition. Immobilized enzyme will then be washed thoroughly to remove the inhibitor, and fresh substrate will be added. The reaction will be monitored for an additional 30 minutes; returning enzymatic activity will indicate reversibility of inhibition.
MAGL enzyme was incubated for 30 minutes in the presence of 40× the IC50 concentration of inhibitor. Enzyme+inhibitor mix was then diluted 40-fold so that the final concentration of the inhibitor equaled the IC50 concentration. Substrate was added and the reaction was monitored for 30 minutes.

[3] = Method A: starting concentration of 100 μM
[4] = Method 12: Reaction Biology MAGL enzyme, 15 nM, read-out: MAGL Potency (Detection Method)
[5] = Method B: starting concentration of 10 μM
[6] = Method 2: Cayman Chemical MAGL enzyme, 10 nM, read-out: MAGL Potency (Detection Method)

MAGL enzyme, sequence (Q99685 whole entry): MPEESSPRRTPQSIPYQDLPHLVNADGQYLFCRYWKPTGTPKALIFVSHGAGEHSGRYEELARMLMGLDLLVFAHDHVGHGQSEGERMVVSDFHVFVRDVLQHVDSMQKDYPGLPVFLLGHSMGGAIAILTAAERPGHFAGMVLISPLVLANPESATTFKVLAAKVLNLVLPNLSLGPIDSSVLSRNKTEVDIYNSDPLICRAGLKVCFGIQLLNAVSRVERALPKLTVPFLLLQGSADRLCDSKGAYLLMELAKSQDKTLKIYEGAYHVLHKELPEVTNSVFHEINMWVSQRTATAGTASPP
human recombinant FAAH, sequence (O00519 whole entry): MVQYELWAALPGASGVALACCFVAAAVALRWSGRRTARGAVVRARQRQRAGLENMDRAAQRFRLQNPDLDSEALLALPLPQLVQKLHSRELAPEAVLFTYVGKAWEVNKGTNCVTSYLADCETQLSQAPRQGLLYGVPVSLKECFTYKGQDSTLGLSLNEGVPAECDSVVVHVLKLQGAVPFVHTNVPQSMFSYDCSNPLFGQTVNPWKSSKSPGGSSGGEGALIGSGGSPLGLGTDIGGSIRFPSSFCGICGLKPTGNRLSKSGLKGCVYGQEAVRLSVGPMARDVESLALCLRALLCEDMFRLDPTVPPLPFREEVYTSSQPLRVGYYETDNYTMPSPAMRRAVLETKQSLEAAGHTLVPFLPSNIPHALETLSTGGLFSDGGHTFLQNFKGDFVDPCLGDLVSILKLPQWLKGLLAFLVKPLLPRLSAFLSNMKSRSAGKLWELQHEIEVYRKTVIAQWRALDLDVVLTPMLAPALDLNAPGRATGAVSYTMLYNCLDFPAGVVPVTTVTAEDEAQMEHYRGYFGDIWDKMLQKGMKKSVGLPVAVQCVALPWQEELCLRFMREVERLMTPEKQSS
Monoacylglycerol Lipase (MAGL), sequence (Q99685 2-303): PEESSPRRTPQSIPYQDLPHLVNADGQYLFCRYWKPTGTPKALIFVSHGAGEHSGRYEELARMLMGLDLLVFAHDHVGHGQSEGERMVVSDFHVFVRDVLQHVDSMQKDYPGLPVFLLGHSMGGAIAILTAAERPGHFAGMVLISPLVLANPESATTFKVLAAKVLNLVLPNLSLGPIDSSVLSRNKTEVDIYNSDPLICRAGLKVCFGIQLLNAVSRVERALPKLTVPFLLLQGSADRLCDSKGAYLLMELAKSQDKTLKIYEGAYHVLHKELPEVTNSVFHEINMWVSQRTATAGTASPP

Row | SMILES | IC50 (human recombinant FAAH; [3]) [µM] | A: degree to which MAGL enzymatic activity returned following washout of test compounds (MAGL enzyme) | B: % MAGL activity returning after washout (MAGL enzyme) [%] | IC50 [2, 4] [µM] | also measured
1 | O=C(c1ccc(F)cc1OC1CC1)N1CC2(CC(n3nc(-c4ccccc4C(F)(F)F)cc3C(F)(F)F)C2)C1 (single isomer, unassigned) [Compound 451, (2-cyclopropoxy-4-fluorophenyl)(6-{5-(trifluoromethyl)-3-[o-(trifluoromethyl)phenyl]-1-pyrazolyl}-2-aza-2-spiro[3.3]heptyl)methanone] | – | – | – | – | AUClast ([1]; 5 mg/kg): 1.20422 µg·h/mL; Cmax ([1]; 5 mg/kg): 271.39 ng/g
2 | Cc1cc(C2CC3(C2)CN(C(=O)c2cc(O)ccc2F)C3)n(-c2ccccc2C)n1 [Compound 74, (2-fluoro-5-hydroxyphenyl)(6-(3-methyl-1-(o-tolyl)-1H-pyrazol-5-yl)-2-azaspiro[3.3]heptan-2-yl)methanone] | – | – | – | – | AUC(0-t) ([1]; male, C57BL/6, mouse, 30 mg/kg, Protocol A): 0.117 µg·h/mL; Cmax ([1]; male, C57BL/6, mouse, 30 mg/kg, Protocol A, read-out: Cmax): 102 ng/g
3 | Cc1cnn(C2CC3(C2)CN(C(=O)c2cc(O)ccc2F)C3)c1-c1cc(F)ccc1F (single isomer, unassigned) [Compound 476, (6-(5-(2,5-Difluorophenyl)-4-methyl-1H-pyrazol-1-yl)-2-azaspiro [3.3]heptan-2-yl) (2-fluoro-5-hydroxyphenyl) methanone] | – | – | – | – | AUClast ([1]; 5 mg/kg): 0.22364 µg·h/mL; Cmax ([1]; 5 mg/kg): 72 ng/g; IC50 ([2]; Method 13: Reaction Biology MAGL enzyme, 12 nM, read-out: MAGL Potency (Detection Method)): 0.05 to 0.15 µM
4 | COc1ccc(F)c(C(=O)N2CC3(CC(c4cc(C)nn4-c4ccccc4C)C3)C2)c1 [Compound 123] | > 10 | – | – | – | IC50 ([2]; Method 2: Cayman Chemical MAGL enzyme, 10 nM, read-out: Potency (MAGL inhibition)): > 10 µM
5 | Cc1cn(C2CC3(C2)CN(C(=O)c2cc(O)ccc2F)C3)nc1-c1cc(F)ccc1Cl [Compound 520, {6-[3-(2-chloro-5-fluorophenyl)-4-methyl-1-pyrazolyl]-2-aza-2-spiro[3.3]heptyl}(2-fluoro-5-hydroxyphenyl)methanone] | – | 100 | >50 | < 0.05 | –
6 | O=C(Oc1ccc([N+](=O)[O-])cc1)N1CCC(C(O)(c2ccc3c(c2)OCO3)c2ccc3c(c2)OCO3)CC1 [JZL-184, reference compound] | – | complete lack of return of MAGL enzymatic activity after washout | <1 | – | –
7 | O=C(c1cc(O)ccc1F)N1CC2(CC(n3cc(C(F)(F)F)c(-c4ccccc4F)n3)C2)C1 [Compound 473, (2-fluoro-5-hydroxyphenyl){6-[3-(o-fluorophenyl)-4-(trifluoromethyl)-1-pyrazolyl]-2-aza-2-spiro[3.3]heptyl}methanone] | – | 41 | <50 | < 0.05 | IC50 (human recombinant FAAH; [5]): > 10 µM
8 | Cc1cc(C2CC3(C2)CN(C(=O)c2cccc(O)c2)C3)n(-c2ccccc2C)n1 [Compound 125, (3-hydroxyphenyl)(6-(3-methyl-1-(o-tolyl)-1H-pyrazol-5-yl)-2-azaspiro[3.3]heptan-2-yl)methanone] | > 10 | – | – | – | IC50 ([2]; Methods 1, 2, read-out: MAGL Potency (Detection Method)): 0.05 to 0.15 µM
9 | Cc1cc(C2CC3(C2)CN(C(=O)c2ccccc2F)C3)n(-c2ccccc2C)n1 [Compound 122, (2-fluorophenyl)(6-(3-methyl-1-(o-tolyl)-1H-pyrazol-5-yl)-2-azaspiro[3.3]heptan-2-yl)methanone] | > 10 | – | – | – | IC50 [2, 6]: 1 to 5.1 µM
10 | Cc1cnn(C2CC3(C2)CN(C(=O)c2cc(O)ccc2F)C3)c1-c1cc(F)ccc1Cl (single isomer, unassigned) [Compound 519, (6-(5-(2-chloro-5-fluorophenyl)-4-methyl-1H-pyrazol-1-yl)-2-azaspiro [3.3]heptan-2-yl) (2-fluoro-5-hydroxyphenyl) methanone] | – | 155 | >50 | 0.05 to 0.15 | –
11 | Cc1ccccc1-n1nc(C2CC3(C2)CN(C(=O)c2cc(O)ccc2F)C3)cc1C [Compound 117] | > 10 | – | – | – | –
12 | O=C(c1cc(O)ccc1F)N1CC2(CC(n3cc(C4CC4)c(-c4ccccc4F)n3)C2)C1 [Compound 493, {6-[4-cyclopropyl-3-(o-fluorophenyl)-1-pyrazolyl]-2-aza-2-spiro[3.3]heptyl}(2-fluoro-5-hydroxyphenyl)methanone] | – | 47 | <50 | < 0.05 | IC50 (human recombinant FAAH; [5]): > 10 µM
13 | Cc1cc(C2CC3(C2)CN(C(=O)c2c(F)ccc(O)c2F)C3)n(-c2ccccc2C)n1 [Compound 127, (2,6-difluoro-3-hydroxyphenyl)(6-(3-methyl-1-(o-tolyl)-1H-pyrazol-5-yl)-2-azaspiro[3.3]heptan-2-yl)methanone] | > 10 | – | – | – | IC50 [2, 6]: 1 to 5.1 µM
